Earlier results on 2 compounds are cited in patent publication US6534676B2, “Method to treat chronic heart failure and/or elevated cholesterol levels using 3,5-diiodothyropropionic acid and method to prepare same” (The Arizona Board of Regents on Behalf of the University of …, priority 2001, dated 2003).

Each structure is given as a SMILES string.

The conditions of series [1]: background statement; cited from earlier work.
The conditions of series [2]: short-term intravenous, patients with advanced congestive failure; cited from earlier work.

In general, half-life refers to how long it takes for the measured level to halve. `N[C@@H](Cc1cc(I)c(Oc2ccc(O)c(I)c2)c(I)c1)C(=O)O` [T3, 3′,3,5-L-triiodothyrone]: the half-life result in series [1] is “two days or less”. In addition, the “cardiac output and arterial vascular resistance” value in series [2] is “improve cardiac output and decrease arterial vascular resistance”.

For the compound `NC(Cc1cc(I)c(Oc2cc(I)c(O)c(I)c2)c(I)c1)C(=O)O` [Thyroxine, 3,5,3′5′-L-thyronine], the half-life in series [1] is 140 to 170 h.
